Experimental data: patent US20260018245A1, “SYSTEMS AND METHODS FOR IDENTIFYING AND TARGETING COLLATERAL LETHAL GENES” (The Regents of the University of Michigan, priority 2022, published 2026)

Tests used:
Type in all cases: cell-based
[1] = system: parental ovarian cancer lines and isogenic SKOV3 lines; experiment: Viability with MTHFD2 inhibitor and uridine supplementation; conditions: uridine 50 μM supplementation
Procedure: FIG. 15 Investigating metabolic consequence of Complex III impairment and activity of paralogous pathways other than oxidative MTHFD2. (a) Effect of MTHFD2 inhibitor ([…]) and uridine (50 μM) supplementation on viability of parental ovarian cancer lines that are UQCR11—intact (SKOV3) or UQCR11-null (HeyA8, OVCAR8, CAOV3). Data are representative of two independent experiments and presented as mean±s.d. (n=6). Data analyzed with one-way ANOVA with Tukey's correction for multiple comparisons. (b) Effect of MTHFD2 inhibitor and uridine supplementation on viability of isogenic SKOV3 lines expressing shScramble or shUQCR11. […] Data analyzed with one-way ANOVA with Tukey's correction for multiple comparisons. […] (n=6) and analyzed using two-tailed Student's t-test. (d) mRNA expression of NNT, IDH2, IDH3A measured via qRT-PCR after knocking down with shNNT, shIDH2, and shIDH3A, relative to scramble shRNA (shScr), verifying knockdown efficiency in SKOV3 and OVCAR8 cell-lines. […] Data analyzed using unpaired two-tailed Student's t-test. […] Data are analyzed using ordinary one-way ANOVA with multiple comparisons. […] Loss of viability calculated by comparing respective viability in vehicle control-treated cells to MTHFD2 inhibitor-treated cells. […] (n=6) and analyzed using ordinary one-way ANOVA with Dunnett's correction for multiple comparisons. Error bars are calculated using propagation of error principles.

SKOV3 cells = experiment: Oxygen consumption rate (OCR) measurement; conditions: SKOV3, increasing rotenone concentrations
Procedure: FIG. 4 Dynamic flux analysis with parallel tracers to quantify oxidative MTHFD2 flux. a, Oxidative MTHFD2 flux and percentage decrease in OCRfollowing MTHFD2 inhibition in SKOV3 cells treated with rotenone (0, 31, 62, 125, 250, 500 or 1,000 nM) and MTHFD2 inhibitor (0 or 60 μM). Oxidative MTHFD2 flux is proportional to [2H1]-serine/[2H1]-NADH enrichment in cells cultured with 4-[2H]-glucose for 8 h. Percentage decrease in OCR is estimated in SKOV3 cells treated with 60 μM MTHFD2i compared with 0 μM MTHFD2i. Oxidative flux data are combined from two independent experiments (n=4), with mean±s.d. estimated using error propagation. OCR data are representative of two independent experiments and presented as mean±s.d. estimated using error propagation (n=5). b, Reductive MTHFD2 flux and basal OCR in SKOV3 cells treated with rotenone (0, 31, 62, 125, 250 or 1,000 nM) and MTHFD2 inhibitor (0 or 60 μM). Reductive MTHFD2 flux is proportional to [2H1]-NADH in cells cultured with 2,3,3-[2H]-serine for 8 h. OCR data are representative of two independent experiments and presented as mean±s.e.m. (n=5). c, Schematic of combination tracer experiment with 4-[2H]-glucose and [2H]-formate to track oxidative MTHFD2 flux. […] (n=6) and analysed using two-tailed Welch's t-test. e, Ratio of [2H2]-serine/[2H]-NADH enrichment in SKOV3 and OVCAR8 cells at 2 h after combined tracer introduction of 4-[2H]-glucose and [2H]-formate, representing the normalized contribution of [2H]-NADH to [2H2]-serine via oxidative MTHFD2 flux. Data combined from two independent experiments (n=6), with mean±s.d. estimated using error propagation and analysed by two-tailed Welch's t-test. f, [2H2]-serine enrichment in SKOV3 cells expressing shScramble or shUQCR11 at 2 h after combined tracer introduction of 4-[2H]-glucose and [2H]-formate. […] (n=5) and analysed using one-tailed non-parametric Mann-Whitney test.
OCR measurement. […] Live OCR was measured for up to 16 h after attaching the lid.
Mito stress test with the Seahorse analyser. Mitochondrial OCR was measured using a Seahorse XFe96 analyser (Agilent Technologies). […]

[2] = system: oxidative MTHFD2 flux in SKOV3 cells; experiment: Oxidative MTHFD2 flux by 4-[2H]-glucose tracing; conditions: SKOV3, increasing rotenone doses (0-1,000 nM), 8 h
Procedure: (§1) FIG. 4 Dynamic flux analysis with parallel tracers to quantify oxidative MTHFD2 flux. a, Oxidative MTHFD2 flux and percentage decrease in OCRfollowing MTHFD2 inhibition in SKOV3 cells treated with rotenone (0, 31, 62, 125, 250, 500 or 1,000 nM) and MTHFD2 inhibitor (0 or 60 μM). Oxidative MTHFD2 flux is proportional to [2H1]-serine/[2H1]-NADH enrichment in cells cultured with 4-[2H]-glucose for 8 h. Percentage decrease in OCR is estimated in SKOV3 cells treated with 60 μM MTHFD2i compared with 0 μM MTHFD2i. Oxidative flux data are combined from two independent experiments (n=4), with mean±s.d. estimated using error propagation. […] (n=6) and analysed using two-tailed Welch's t-test. e, Ratio of [2H2]-serine/[2H]-NADH enrichment in SKOV3 and OVCAR8 cells at 2 h after combined tracer introduction of 4-[2H]-glucose and [2H]-formate, representing the normalized contribution of [2H]-NADH to [2H2]-serine via oxidative MTHFD2 flux. Data combined from two independent experiments (n=6), with mean±s.d. estimated using error propagation and analysed by two-tailed Welch's t-test. f, [2H2]-serine enrichment in SKOV3 cells expressing shScramble or shUQCR11 at 2 h after combined tracer introduction of 4-[2H]-glucose and [2H]-formate. […] (n=5) and analysed using one-tailed non-parametric Mann-Whitney test. […]

[3] = system: reductive MTHFD2 flux in SKOV3 cells; experiment: Reductive MTHFD2 flux by 2,3,3-[2H]-serine tracing; conditions: SKOV3, increasing rotenone doses, 8 h
Procedure: as §1

| SMILES | rescue of cells from MTHFD2 inhibition [1] | basal OCR (SKOV3 cells) | oxidative MTHFD2 flux [2] | reductive MTHFD2 flux [3] |
| --- | --- | --- | --- | --- |
| O=c1ccn([C@@H]2O[C@H](CO)[C@@H](O)[C@H]2O)c(=O)[nH]1 [uridine] | unable to rescue | – | – | – |
| C=C(C)[C@H]1Cc2c(ccc3c2O[C@@H]2COc4cc(OC)c(OC)cc4[C@@H]2C3=O)O1 [rotenone] | – | monotonic decrease | first increased with increasing, yet low, rotenone doses but returned to original levels as doses were further increased | modest increase at low rotenone doses, which became most pronounced at the highest doses |
